Molecular target: T1, IRAK4 (Homo sapiens, UniProt Q9NWZ3)
T1 sequence (Q9NWZ3 1-460): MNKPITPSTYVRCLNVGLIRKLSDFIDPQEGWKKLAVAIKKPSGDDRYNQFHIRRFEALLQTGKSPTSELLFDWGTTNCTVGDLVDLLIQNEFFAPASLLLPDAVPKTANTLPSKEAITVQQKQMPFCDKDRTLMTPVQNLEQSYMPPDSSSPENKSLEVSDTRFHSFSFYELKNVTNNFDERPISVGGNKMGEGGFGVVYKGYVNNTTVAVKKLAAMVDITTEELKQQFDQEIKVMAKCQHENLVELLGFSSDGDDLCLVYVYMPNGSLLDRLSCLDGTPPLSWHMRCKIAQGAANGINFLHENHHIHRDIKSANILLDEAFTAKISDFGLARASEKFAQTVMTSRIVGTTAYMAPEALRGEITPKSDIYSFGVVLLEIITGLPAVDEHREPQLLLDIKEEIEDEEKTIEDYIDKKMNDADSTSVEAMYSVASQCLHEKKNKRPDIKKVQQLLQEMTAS
Test: OCI-LY-10 degradation assay (western blot, % IRAK4 degraded after 4 hours)
Format: cell-based
Design: endogenous in cells; host or cells: OCI-LY10
Settings: OCI-LY10 cells
Outline: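 IRAK4 loss after 4 h at 37° C was scored A (>50%), B (>20-50%) or C (<20%) from infrared western blots of RIPA lysates, 20-25 μg protein per lane. Compound was applied at 0.003-10 μM final to OCI-LY10 cells cultured in RPMI-1640 with 20% FBS and 55 μM 2-ME.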

OCI-LY10 % IRAK4 Degradation (0.01 uM) (4 hours, 0.01 uM compound): C (<20% degradation)
OCI-LY10 % IRAK4 Degradation (0.1 uM) (4 hours, 0.1 uM compound): B (>20-50% degradation)
OCI-LY10 % IRAK4 Degradation (1 uM) (4 hours, 1 uM compound): A (>50% degradation)
OCI-LY10 % IRAK4 Degradation (IRAK4 degraded after 4 hours, western blot): A (>50% degradation)
SMILES: O=C1CCC(N2C(=O)c3cccc(NCCOCCOCCNCc4ccc(-n5cc(NC(=O)c6coc(-c7ccnc(NCC8CC8)c7)n6)c(C(F)F)n5)cc4)c3C2=O)C(=O)N1 (stereo not shown) [I-210, 2-[2-(Cyclopropylmethylamino)-4-pyridyl]-N-[3-(difluoromethyl)-1-[4-[[2-[2-[2-[[2-(2,6-dioxo-3-piperidyl)-1,3-dioxoisoindolin-4-yl]amino]ethoxy]ethoxy]ethylamino]methyl]phenyl]pyrazol-4-yl]oxazole-4-carboxamide]
